According to PMC5011342, “A high throughput drug screening assay to identify compounds that promote oligodendrocyte differentiation using acutely dissociated and purified oligodendrocyte precursor cells” (BMC Research Notes, 2016):
Structures can show the parent of a compound that is named as a salt. Where two headings read alike, the source gives them in different places.

Columns and labels:
expanded OPCs = test: cells; conditions: for viability at 0.1 µM / viability at 1 µM / viability at 10 µM: Rattus norvegicus, 72 h
Summary of the method: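 Expanded OPCs seeded at 10,000 cells/well in differentiation media, then exposed to NCC library compounds at 10, 1 and 0.1 µM (quadruplicate, 0.1% DMSO) for three days. Viability read as alamarBlue fluorescence (560/590 nm) after 4 h at 37 °C; tunicamycin 5 ng/ml served as toxicity control.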

[1] = system: acutely dissociated and purified rat OPCs; test: Acute OL differentiation assay (MBP expression/cell, immunofluorescent image quantification); type: cell-based; conditions: for activation at 0.4 µM: test compound at 0.4 uM, read-out: 0.4 uM (% Quet)
Summary of the method: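 Oligodendrocyte precursor cells were enriched from P6-P7 Sprague–Dawley rat brains by immunopanning (RAN-2 and GalC depletion, O4 selection), plated at 5000 cells/well in serum-free, mitogen-free differentiation media on PDL/laminin 96-well view plates, centrifuged at 200×g, and pre-incubated 1–2 h before test compounds were added in quadruplicate. On DIV4, cells were fixed, stained for MBP and DAPI, imaged automatically, and MBP expression per cell was quantified.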

[2] = alamarBlue viability of expanded OPCs, compound at 0.1 µM, relative to DMSO control
[3] = alamarBlue viability of expanded OPCs, compound at 1 µM, relative to DMSO control
[4] = alamarBlue viability of expanded OPCs, compound at 10 µM, relative to DMSO control
[5] = Rattus norvegicus, test compound at 2 uM, MBP expression relative to quetiapine, NCC library screen, sheet "All OLga data", read-out: 2 uM (% Quet)
[6] = Rattus norvegicus, test compound at 10 uM, MBP expression relative to quetiapine, NCC library screen, sheet "All OLga data", read-out: 10 uM (% Quet)
[7] = read-out: 0.1 µM (% DMSO), alamarBlue viability, NCC library compound at 0.1 µM, sheet "All Tox data"
[8] = read-out: 1 µM (% DMSO), alamarBlue viability, NCC library compound at 1 µM, sheet "All Tox data"
[9] = read-out: 10 µM (% DMSO), alamarBlue viability, NCC library compound at 10 µM, sheet "All Tox data"
[10] = Rattus norvegicus, test compound at 2 uM, NCC library screen, sheet "All OLga data", relative to quetiapine, read-out: 2 uM (% Quet)
[11] = Rattus norvegicus, test compound at 10 uM, NCC library screen, sheet "All OLga data", relative to quetiapine, read-out: 10 uM (% Quet)
[12] = read-out: 0.1 µM (% DMSO), alamarBlue viability of expanded OPCs, compound at 0.1 µM, sheet All Tox data
[13] = read-out: 1 µM (% DMSO), alamarBlue viability of expanded OPCs, compound at 1 µM, sheet All Tox data
[14] = read-out: 10 µM (% DMSO), alamarBlue viability of expanded OPCs, compound at 10 µM, sheet All Tox data
[15] = Rattus norvegicus, 2 uM test compound, relative to quetiapine, sheet "All OLga data", read-out: OL differentiation, 2 uM (% Quet)
[16] = Rattus norvegicus, 10 uM test compound, relative to quetiapine, sheet "All OLga data", read-out: OL differentiation, 10 uM (% Quet)
[17] = Rattus norvegicus, NCC library screen, sheet "All OLga data", relative to quetiapine

O=C(O[C@@H]1Cc2c(O)cc(O)cc2O[C@@H]1c1cc(O)c(O)c(O)c1)c1cc(O)c(O)c(O)c1 [Epigallocatechin gallate]
0.1 µM (% DMSO) (expanded OPCs; alamarBlue viability of expanded OPCs, compound at 0.1 µM, sheet All Tox data): 81.9 % DMSO | 1 µM (% DMSO) (expanded OPCs; alamarBlue viability of expanded OPCs, compound at 1 µM, sheet All Tox data): 78.8 % DMSO | 10 µM (% DMSO) (expanded OPCs; alamarBlue viability of expanded OPCs, compound at 10 µM, sheet All Tox data): 48.5 % DMSO | OL differentiation, 0.4 uM (% Quet) ([1]; 0.4 uM test compound, relative to quetiapine, sheet "All OLga data"): -15.9 % Quet | OL differentiation, 2 uM (% Quet) ([1]; 2 uM test compound, relative to quetiapine, sheet "All OLga data"): 21.7 % Quet

CNC[C@H](O)c1ccc(O)c(O)c1 [Epinephrine]
0.1 µM (% DMSO) (expanded OPCs; [2]): 101.9 % DMSO | 1 µM (% DMSO) (expanded OPCs; [3]): 92.7 % DMSO | 10 µM (% DMSO) (expanded OPCs; [4]): 81.7 % DMSO | activation at 2 µM [1, 5]: -7.6% | activation at 10 µM [1, 6]: -15%

COc1cc(C)nc(-n2nc(C)cc2OC)n1 [Epirizole]
viability at 0.1 µM (expanded OPCs; [7]): 106% | viability at 1 µM (expanded OPCs; [8]): 110% | viability at 10 µM (expanded OPCs; [9]): 112% | activation at 2 µM [1, 10]: -9.9% | activation at 10 µM [1, 11]: -10.5%

CCOC(=O)CCC(=O)O[C@H]1[C@H](O[C@@H]2[C@@H](C)[C@H](O[C@H]3C[C@@](C)(OC)[C@@H](O)[C@H](C)O3)[C@@H](C)C(=O)O[C@H](CC)[C@@](C)(O)[C@H](O)[C@@H](C)C(=O)[C@H](C)C[C@@]2(C)O)O[C@H](C)C[C@@H]1N(C)C [Erythromycin Ethylsuccinate]
0.1 µM (% DMSO) (expanded OPCs; [2]): 95.4 % DMSO | 1 µM (% DMSO) (expanded OPCs; [3]): 87.4 % DMSO | 10 µM (% DMSO) (expanded OPCs; [4]): 75.9 % DMSO | activation at 2 µM [1, 10]: 1% | activation at 10 µM [1, 11]: 8.7%

CC[C@H]1OC(=O)[C@H](C)[C@@H](O[C@H]2C[C@@](C)(OC)[C@@H](O)[C@H](C)O2)[C@H](C)[C@@H](O[C@@H]2O[C@H](C)C[C@H](N(C)C)[C@H]2O)[C@](C)(O)C[C@@H](C)C(=O)[C@H](C)[C@@H](O)[C@]1(C)O [Erythromycin]
viability at 0.1 µM (expanded OPCs; [12]): 93.4% | viability at 1 µM (expanded OPCs; [13]): 89.6% | viability at 10 µM (expanded OPCs; [14]): 59.1% | activation at 2 µM [1, 15]: -40.1% | activation at 10 µM [1, 16]: -66.2%

COC(=O)CCc1ccc(OCC(O)CNC(C)C)cc1 (stereo not drawn) [Esmolol, reference compound]
viability at 0.1 µM (expanded OPCs; [12]): 93.8% | viability at 1 µM (expanded OPCs; [13]): 98.2% | viability at 10 µM (expanded OPCs; [14]): 113% | activation at 2 µM [1, 15]: 39.8% | activation at 10 µM [1, 16]: 29.6% | EC50 ([1]; Rattus norvegicus, average EC50 for induction of OL differentiation from independent biological replicates, eight concentrations): 240 µM | hit in OL differentiation assay, MRF-TMC ([1]; ● = confirmed hit in this paper's assay): ●

COc1ccc2nc([S@@+]([O-])Cc3ncc(C)c(OC)c3C)[nH]c2c1 [Esomeprazole]
viability at 0.1 µM (expanded OPCs; [12]): 85.5% | viability at 1 µM (expanded OPCs; [13]): 90% | viability at 10 µM (expanded OPCs; [14]): 95.3% | activation at 2 µM [1, 15]: 12.7% | activation at 10 µM [1, 16]: -23.8%

CCCCC(=O)O[C@H]1CC[C@H]2[C@@H]3CCc4cc(O)ccc4[C@H]3CC[C@]12C [Estradiol valerate]
viability at 0.1 µM (expanded OPCs; [7]): 93.2% | viability at 1 µM (expanded OPCs; [8]): 93.5% | viability at 10 µM (expanded OPCs; [9]): 9.6% | activation at 0.4 µM [1, 17]: -65.1%

C[C@]12CC[C@@H]3c4ccc(O)cc4CC[C@H]3[C@@H]1CC[C@@H]2O [Estradiol]
viability at 0.1 µM (expanded OPCs; [12]): 81.2% | viability at 1 µM (expanded OPCs; [13]): 75.5% | viability at 10 µM (expanded OPCs; [14]): 64.6% | activation at 2 µM [1, 15]: 15.2% | activation at 10 µM [1, 16]: 32.1%

C[C@]12CC[C@@H]3c4ccc(OS(=O)(=O)O)cc4CC[C@H]3[C@@H]1CCC2=O [Estrone sulfate]
0.1 µM (% DMSO) (expanded OPCs; alamarBlue viability, NCC library compound at 0.1 µM, sheet "All Tox data"): 94.4 % DMSO | 1 µM (% DMSO) (expanded OPCs; alamarBlue viability, NCC library compound at 1 µM, sheet "All Tox data"): 83.6 % DMSO | 10 µM (% DMSO) (expanded OPCs; alamarBlue viability, NCC library compound at 10 µM, sheet "All Tox data"): 92.4 % DMSO | 2 uM (% Quet) ([1]; test compound at 2 uM, NCC library screen, sheet "All OLga data", relative to quetiapine): 12.5 % Quet | 10 uM (% Quet) ([1]; test compound at 10 uM, NCC library screen, sheet "All OLga data", relative to quetiapine): 10.2 % Quet

CN1CCN(C(=O)O[C@H]2c3nccnc3C(=O)N2c2ccc(Cl)cn2)CC1 [Eszopiclone]
0.1 µM (% DMSO) (expanded OPCs; [2]): 103.0 % DMSO | 1 µM (% DMSO) (expanded OPCs; [3]): 99.5 % DMSO | 10 µM (% DMSO) (expanded OPCs; [4]): 106.9 % DMSO | activation at 2 µM [1, 5]: -2.9% | activation at 10 µM [1, 6]: -10.2%

C=C(CC)C(=O)c1ccc(OCC(=O)O)c(Cl)c1Cl [Ethacrynic Acid]
0.1 µM (% DMSO) (expanded OPCs; [2]): 90.2 % DMSO | 1 µM (% DMSO) (expanded OPCs; [3]): 80.6 % DMSO | 10 µM (% DMSO) (expanded OPCs; [4]): 11.2 % DMSO | activation at 0.4 µM [1, 17]: -23.7% | activation at 2 µM [1, 10]: -192%

CC[C@@H](CO)NCCN[C@@H](CC)CO [Ethambutol]
0.1 µM (% DMSO) (expanded OPCs; [2]): 106.3 % DMSO | 1 µM (% DMSO) (expanded OPCs; [3]): 100.0 % DMSO | 10 µM (% DMSO) (expanded OPCs; [4]): 85.9 % DMSO | activation at 2 µM [1, 5]: 2.2% | activation at 10 µM [1, 6]: -11.9%
